The target in the test is T1, CAMK1D (CaMKI delta) (Homo sapiens, UniProt Q8IU85).
T1 construct: purchased Thermo Fisher Scientific (Life Technologies) SelectScreen
Nature of the test: SelectScreen Z'LYTE. The test is classed as biochemical. An outline of the steps: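 Percent values come from Thermo SelectScreen profiling of NU5455, combining activity and binding assays. CSF1R was run in Z'LYTE format at Km app ATP, and CAMK1 in Adapta format with ATP listed at 10.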

T1 sequence (Q8IU85 whole entry): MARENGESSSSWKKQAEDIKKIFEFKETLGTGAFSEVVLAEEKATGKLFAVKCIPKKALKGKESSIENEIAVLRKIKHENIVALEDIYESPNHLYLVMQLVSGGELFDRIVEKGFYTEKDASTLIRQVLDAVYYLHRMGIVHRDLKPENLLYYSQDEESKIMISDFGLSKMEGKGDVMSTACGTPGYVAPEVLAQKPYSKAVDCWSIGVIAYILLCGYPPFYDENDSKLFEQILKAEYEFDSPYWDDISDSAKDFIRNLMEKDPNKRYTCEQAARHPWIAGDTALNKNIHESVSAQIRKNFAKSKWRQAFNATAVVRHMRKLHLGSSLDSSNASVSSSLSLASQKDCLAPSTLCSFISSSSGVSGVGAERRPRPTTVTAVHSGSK

Turning to `CN(C(=O)CN1CCOCC1)c1ccc2sc3c(-c4cccc5c(=O)cc(N6CC7CCC(C6)O7)oc45)cccc3c2c1` [NU5455], the inhibition (commonly the share of the control response that was lost under treatment) at 1 µM was 4.1%.

Values taken from PMC6934184, “Selective DNA-PKcs inhibition extends the therapeutic index of localized radiotherapy and chemotherapy” (The Journal of Clinical Investigation, 2019).
